Patent US11358957B2, “Microbiocidal oxadiazole derivatives” (SYNGENTA PARTICIPATIONS AG, priority 2017, dated 2022)

What was measured:
[1] = tested on: Puccinia recondita f. Sp. Tritici; experiment: Fungicidal activity against Puccinia recondita f. sp. tritici / wheat / leaf disc preventative (brown rust); type: in vivo; conditions: foliar, 200 ppm in the applied formulation, wheat leaf segments cv. Kanzler, preventative (inoculated 1 day after application), compared to untreated, read-out: disease control
Procedure: Leaf disks or leaf segments of various plant species are cut from plants grown in a greenhouse. The cut leaf disks or segments are placed in multiwell plates (24-well format) onto water agar. The leaf disks are sprayed with a test solution before (preventative) or after (curative) inoculation. Compounds to be tested are prepared as DMSO solutions (max. 10 mg/mL) which are diluted to the appropriate concentration with 0.025% Tween20 just before spraying. The inoculated leaf disks or segments are incubated under defined conditions (temperature, relative humidity, light, etc.) according to the respective test system. A single evaluation of disease level is carried out 3 to 14 days after inoculation, depending on the pathosystem. Percent disease control relative to the untreated check leaf disks or segments is then calculated. Wheat leaf segments cv. Kanzler were placed on agar in multiwell plates (24-well format) and sprayed with the formulated test compound diluted in water. The leaf disks were inoculated with a spore suspension of the fungus 1 day after application. The inoculated leaf segments were incubated at 19° C. and 75% relative humidity (rh) under a light regime of 12 hours light/12 hours darkness in a climate cabinet and the activity of a compound was assessed as percent disease control compared to untreated when an appropriate level of disease damage appears in untreated check leaf segments (7 to 9 days after application). The following compounds at 200 ppm in the applied formulation give at least 80% disease control in this test when compared to untreated control leaf disks under the same conditions, which show extensive disease development.

[2] = tested on: Puccinia recondita f. Sp. Tritici; experiment: Fungicidal activity against Puccinia recondita f. sp. tritici / wheat / leaf disc curative (brown rust); type: in vivo; conditions: foliar, 24 h, 200 ppm in the applied formulation, wheat leaf segments cv. Kanzler, curative (applied 1 day after inoculation), compared to untreated, read-out: disease control
Procedure: Leaf disks or leaf segments of various plant species are cut from plants grown in a greenhouse. The cut leaf disks or segments are placed in multiwell plates (24-well format) onto water agar. The leaf disks are sprayed with a test solution before (preventative) or after (curative) inoculation. Compounds to be tested are prepared as DMSO solutions (max. 10 mg/mL) which are diluted to the appropriate concentration with 0.025% Tween20 just before spraying. The inoculated leaf disks or segments are incubated under defined conditions (temperature, relative humidity, light, etc.) according to the respective test system. A single evaluation of disease level is carried out 3 to 14 days after inoculation, depending on the pathosystem. Percent disease control relative to the untreated check leaf disks or segments is then calculated. Wheat leaf segments cv. Kanzler are placed on agar in multiwell plates (24-well format). The leaf segments are then inoculated with a spore suspension of the fungus. Plates were stored in darkness at 19C and 75% relative humidity. The formulated test compound diluted in water was applied 1 day after inoculation. The leaf segments were incubated at 19° C. and 75% relative humidity under a light regime of 12 hours light/12 hours darkness in a climate cabinet and the activity of a compound was assessed as percent disease control compared to untreated when an appropriate level of disease damage appears in untreated check leaf segments (6 to 8 days after application). The following compounds at 200 ppm in the applied formulation give at least 80% disease control in this test when compared to untreated control leaf disks under the same conditions, which show extensive disease development.

[3] = tested on: Glomerella lagenarium (Colletotrichum lagenarium); experiment: Fungicidal activity against Glomerella lagenarium (Colletotrichum lagenarium) liquid culture / cucumber / preventative (anthracnose); type: cell-based; conditions: Colletotrichum orbiculare; 20 ppm in the applied formulation; liquid culture (PDB), inhibition of growth measured photometrically 3 to 4 days after application; compared to untreated; read-out: disease control
Procedure: Mycelia fragments or conidia suspensions of a fungus prepared either freshly from liquid cultures of the fungus or from cryogenic storage, are directly mixed into nutrient broth. DMSO solutions of the test compound (max. 10 mg/mL) are diluted with 0.025% Tween20 by a factor of 50 and 10 μL of this solution is pipetted into a microtiter plate (96-well format). The nutrient broth containing the fungal spores/mycelia fragments is then added to give an end concentration of the tested compound. The test plates are incubated in the dark at 24° C. and 96% relative humidity. The inhibition of fungal growth is determined photometrically after 2 to 7 days, depending on the pathosystem, and percent antifungal activity relative to the untreated check is calculated. Conidia of the fungus from cryogenic storage are directly mixed into nutrient broth (PDB—potato dextrose broth). After placing a (DMSO) solution of test compound into a microtiter plate (96-well format), the nutrient broth containing the fungal spores is added. The test plates are incubated at 24° C. and the inhibition of growth is measured photometrically 3 to 4 days after application. The following compounds at 20 ppm in the applied formulation give at least 80% disease control in this test when compared to untreated control under the same conditions, which show extensive disease development.

O=C(NC1CCC1)c1ncn(Cc2ccc(-c3noc(C(F)(F)F)n3)s2)n1 [Compound 1.91, N-cyclobutyl-1-[[5-[5-(trifluoromethyl)-1,2,4-oxadiazol-3-yl]-2-thienyl]methyl]-1,2,4-triazole-3-carboxamide]
≥ 80%: pest or weed control at 200 ppm [1] | pest or weed control at 200 ppm [2] | inhibition of growth at 20 ppm [3]

O=C(NC1CCCC1)c1ncn(Cc2ccc(-c3noc(C(F)(F)F)n3)s2)n1 [Compound 1.94, N-cyclopentyl-1-[[5-[5-(trifluoromethyl)-1,2,4-oxadiazol-3-yl]-2-thienyl]methyl]-1,2,4-triazole-3-carboxamide]
≥ 80%: pest or weed control at 200 ppm [1] | pest or weed control at 200 ppm [2] | inhibition of growth at 20 ppm [3]

O=C(NCc1ccco1)c1ncn(Cc2ccc(-c3noc(C(F)(F)F)n3)s2)n1 [Compound 1.96, N-(2-furylmethyl)-1-[[5-[5-(trifluoromethyl)-1,2,4-oxadiazol-3-yl]-2-thienyl]methyl]-1,2,4-triazole-3-carboxamide]
≥ 80%: pest or weed control at 200 ppm [1] | pest or weed control at 200 ppm [2] | inhibition of growth at 20 ppm [3]

C#CCNC(=O)c1ncn(Cc2ccc(-c3noc(C(F)(F)F)n3)s2)n1 [Compound 1.98, N-prop-2-ynyl-1-[[5-[5-(trifluoromethyl)-1,2,4-oxadiazol-3-yl]-2-thienyl]methyl]-1,2,4-triazole-3-carboxamide]
≥ 80%: pest or weed control at 200 ppm [1] | pest or weed control at 200 ppm [2] | inhibition of growth at 20 ppm [3]

CC(C)(C)CNC(=O)c1cnn(Cc2ccc(-c3noc(C(F)(F)F)n3)s2)c1 [Compound 1.101, N-(2,2-dimethylpropyl)-1-[[5-[5-(trifluoromethyl)-1,2,4-oxadiazol-3-yl]-2-thienyl]methyl]pyrazole-4-carboxamide]
≥ 80%: pest or weed control at 200 ppm [1] | pest or weed control at 200 ppm [2] | inhibition of growth at 20 ppm [3]

CC(C)NC(=O)c1cnn(Cc2ccc(-c3noc(C(F)(F)F)n3)s2)c1 [Compound 1.102, N-isopropyl-1-[[5-[5-(trifluoromethyl)-1,2,4-oxadiazol-3-yl]-2-thienyl]methyl]pyrazole-4-carboxamide]
≥ 80%: pest or weed control at 200 ppm [1] | pest or weed control at 200 ppm [2] | inhibition of growth at 20 ppm [3]

CON(C)C(=O)c1cnn(Cc2ccc(-c3noc(C(F)(F)F)n3)s2)c1 [Compound 1.103, N-methoxy-N-methyl-1-[[5-[5-(trifluoromethyl)-1,2,4-oxadiazol-3-yl]-2-thienyl]methyl]pyrazole-4-carboxamide]
≥ 80%: pest or weed control at 200 ppm [1] | pest or weed control at 200 ppm [2] | inhibition of growth at 20 ppm [3]

O=C(NC1CCCCC1)c1cnn(Cc2ccc(-c3noc(C(F)(F)F)n3)s2)c1 [Compound 1.105, N-cyclohexyl-1-[[5-[5-(trifluoromethyl)-1,2,4-oxadiazol-3-yl]-2-thienyl]methyl]pyrazole-4-carboxamide]
≥ 80%: pest or weed control at 200 ppm [1] | pest or weed control at 200 ppm [2] | inhibition of growth at 20 ppm [3]

CCNC(=O)c1cnn(Cc2ccc(-c3noc(C(F)(F)F)n3)s2)c1 [Compound 1.106, N-ethyl-1-[[5-[5-(trifluoromethyl)-1,2,4-oxadiazol-3-yl]-2-thienyl]methyl]pyrazole-4-carboxamide]
≥ 80%: pest or weed control at 200 ppm [1] | pest or weed control at 200 ppm [2] | inhibition of growth at 20 ppm [3]

CC(C)CNC(=O)c1cnn(Cc2ccc(-c3noc(C(F)(F)F)n3)s2)c1 [Compound 1.109, N-isobutyl-1-[[5-[5-(trifluoromethyl)-1,2,4-oxadiazol-3-yl]-2-thienyl]methyl]pyrazole-4-carboxamide]
≥ 80%: pest or weed control at 200 ppm [1] | pest or weed control at 200 ppm [2] | inhibition of growth at 20 ppm [3]

CCNC(=O)c1ccn(Cc2ccc(-c3noc(C(F)(F)F)n3)s2)n1 [Compound 1.120, N-ethyl-1-[[5-[5-(trifluoromethyl)-1,2,4-oxadiazol-3-yl]-2-thienyl]methyl]pyrazole-3-carboxamide]
≥ 80%: pest or weed control at 200 ppm [1] | pest or weed control at 200 ppm [2] | inhibition of growth at 20 ppm [3]

C=CCNC(=O)c1ccn(Cc2ccc(-c3noc(C(F)(F)F)n3)s2)n1 [Compound 1.122, N-allyl-1-[[5-[5-(trifluoromethyl)-1,2,4-oxadiazol-3-yl]-2-thienyl]methyl]pyrazole-3-carboxamide]
≥ 80%: pest or weed control at 200 ppm [1] | pest or weed control at 200 ppm [2] | inhibition of growth at 20 ppm [3]

O=C(NC1CC1)c1ccn(Cc2ccc(-c3noc(C(F)(F)F)n3)s2)n1 [Compound 1.126, N-cyclopropyl-1-[[5-[5-(trifluoromethyl)-1,2,4-oxadiazol-3-yl]-2-thienyl]methyl]pyrazole-3-carboxamide]
≥ 80%: pest or weed control at 200 ppm [1] | pest or weed control at 200 ppm [2] | inhibition of growth at 20 ppm [3]

CCN(CC)C(=O)c1ccn(Cc2ccc(-c3noc(C(F)(F)F)n3)s2)n1 [Compound 1.128, N,N-diethyl-1-[[5-[5-(trifluoromethyl)-1,2,4-oxadiazol-3-yl]-2-thienyl]methyl]pyrazole-3-carboxamide]
≥ 80%: pest or weed control at 200 ppm [1] | pest or weed control at 200 ppm [2] | inhibition of growth at 20 ppm [3]

O=C(NCc1ccco1)c1cnn(Cc2ccc(-c3noc(C(F)(F)F)n3)s2)c1 [Compound 1.129, N-(2-furylmethyl)-1-[[5-[5-(trifluoromethyl)-1,2,4-oxadiazol-3-yl]-2-thienyl]methyl]pyrazole-4-carboxamide]
≥ 80%: pest or weed control at 200 ppm [1] | pest or weed control at 200 ppm [2] | inhibition of growth at 20 ppm [3]

O=C(Nc1ccccc1)c1ccn(Cc2ccc(-c3noc(C(F)(F)F)n3)s2)n1 [Compound 1.130, N-phenyl-1-[[5-[5-(trifluoromethyl)-1,2,4-oxadiazol-3-yl]-2-thienyl]methyl]pyrazole-3-carboxamide]
≥ 80%: pest or weed control at 200 ppm [1] | pest or weed control at 200 ppm [2] | inhibition of growth at 20 ppm [3]

CCCNC(=O)c1ccn(Cc2ccc(-c3noc(C(F)(F)F)n3)s2)n1 [Compound 1.137, N-propyl-1-[[5-[5-(trifluoromethyl)-1,2,4-oxadiazol-3-yl]-2-thienyl]methyl]pyrazole-3-carboxamide]
≥ 80%: pest or weed control at 200 ppm [1] | pest or weed control at 200 ppm [2] | inhibition of growth at 20 ppm [3]
